Assay results: article PMC12449377, “Psychedelic-like effects induced by 2,5-dimethoxy-4-iodoamphetamine, lysergic acid diethylamide, and psilocybin in male and female C57BL/6J mice” (Psychopharmacology, 2025)
Like-named read-outs stand apart in the source and are kept apart here.

Legend:
[1] = test system: C57BL/6J mice; test: Locomotor activity (distance traveled) in mice; type: in vivo, mouse; conditions: for Locomotor Activity (cm) Mean: 30 min
Procedure: (§1) At 1–2 weeks prior to the beginning of experiments, mice were habituated to handling and receiving s.c. saline injections. On the day of an experiment, mice were acclimated to the testing room in their home cage for at least 30 min prior to the start of sessions. Prior to each session, mice were weighed, and resting body temperatures were recorded. Mice were then placed into experimental chambers for acclimation. Behavioral testing was carried out in TruScan mouse locomotor arenas equipped with photobeam arrays (Coulbourn Instruments, Holliston, MA, USA) that were modified with cylindrical inserts and transparent flooring to aid in semi-automated HTR detection as previously described (Glatfelter et al. [2022a]). After 5 min of acclimation, basal body temperature was recorded followed by s.c. injection of drug or vehicle, and mice were returned to test chambers for 30 min. Dose ranges for each drug were 0.03–10 mg/kg for DOI, 0.03–10 mg/kg for psilocybin, and 0.003–1 mg/kg for LSD. Mice were randomly assigned to specific doses at the beginning of the experiment and received different doses at each session.
(§2) During each session, locomotor activity was quantified via photobeam tracking of distance traveled in cm. Overhead GoPro Hero Black 7 video recordings (120 fps, 960p resolution) were analyzed using a commercially available software package from Clever Sys Inc. (Reston, VA, USA) for the measurement of HTR activity. Mouse body temperature was also collected post-session to calculate temperature change values (basal - post session temperature reading).
(§3) Concentration-response data were fit to a single site non-linear regression model. For the HTR studies, potencies were determined from the ascending limb of the dose-response curves using ED50 potency values from [agonist] vs. response (variable slope, four parameter) least squares fit non-linear regression analyses, whereas efficacy was defined by the top output parameter or Emax from the aforementioned analyses. […] Best-fit values for ED50 and Emax from non-linear regression analyses were compared by extra sum-of-squares F tests. Mean effects for each behavioral endpoint were compared using two-way ANOVA (dose x sex), followed by Sidak’s multiple comparisons post-hoc test. Mean effects for pooled mouse behavioral data were compared via Welch’s ANOVA with Dunnett’s T3 post-hoc test, comparing all doses to saline vehicle controls (0 mg/kg). Alpha was set to 0.05 for all analyses.

[2] = biological target: T1, 5-HT2A (Mus musculus, UniProt P35363); test: Competition binding vs [3H]M100907 in mouse brain membranes
T1 construct: tissue BioIVT; host or cells: whole C57BL/6 mouse brain minus cerebellum, male and female
T1 sequence (P35363 whole entry): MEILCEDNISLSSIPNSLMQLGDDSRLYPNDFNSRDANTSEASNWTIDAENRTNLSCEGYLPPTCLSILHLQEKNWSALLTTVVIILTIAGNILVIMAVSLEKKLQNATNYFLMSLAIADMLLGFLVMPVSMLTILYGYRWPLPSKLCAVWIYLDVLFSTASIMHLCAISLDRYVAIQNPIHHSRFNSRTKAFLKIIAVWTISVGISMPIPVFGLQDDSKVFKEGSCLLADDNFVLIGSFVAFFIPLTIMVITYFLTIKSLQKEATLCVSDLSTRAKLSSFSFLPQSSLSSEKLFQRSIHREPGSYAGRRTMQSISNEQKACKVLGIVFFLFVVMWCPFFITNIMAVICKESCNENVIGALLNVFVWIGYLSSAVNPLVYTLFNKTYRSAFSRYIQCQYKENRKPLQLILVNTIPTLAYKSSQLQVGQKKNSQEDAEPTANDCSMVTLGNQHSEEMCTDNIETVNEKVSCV
Procedure: (§4) Competition binding studies were conducted in mouse brain tissue as previously described (Glatfelter et al. [2022b]). Briefly, the experiments utilized membranes prepared from whole C57BL/6 mouse brain minus cerebellum (BioIVT, Westbury, NY, USA). […] We assessed the ability of test drugs to compete for [^3H]M100907 binding at 5-HT2A (1 nM) or [^3H]8-OH-DPAT binding at 5-HT1A (0.5 nM). Radioligands were purchased commercially (PerkinElmer, Boston, MA, USA). Nonspecific binding was determined using 10 µM ketanserin for 5-HT2A and serotonin for 5-HT1A. All data represent 3 experiments performed in triplicate.
as §3

[3] = biological target: T2, 5-HT1A (Mus musculus, UniProt Q64264); test: Competition binding vs [3H]8-OH-DPAT in mouse brain membranes
T2 construct: tissue BioIVT; host or cells: whole C57BL/6 mouse brain minus cerebellum, male and female
T2 sequence (Q64264 1-421): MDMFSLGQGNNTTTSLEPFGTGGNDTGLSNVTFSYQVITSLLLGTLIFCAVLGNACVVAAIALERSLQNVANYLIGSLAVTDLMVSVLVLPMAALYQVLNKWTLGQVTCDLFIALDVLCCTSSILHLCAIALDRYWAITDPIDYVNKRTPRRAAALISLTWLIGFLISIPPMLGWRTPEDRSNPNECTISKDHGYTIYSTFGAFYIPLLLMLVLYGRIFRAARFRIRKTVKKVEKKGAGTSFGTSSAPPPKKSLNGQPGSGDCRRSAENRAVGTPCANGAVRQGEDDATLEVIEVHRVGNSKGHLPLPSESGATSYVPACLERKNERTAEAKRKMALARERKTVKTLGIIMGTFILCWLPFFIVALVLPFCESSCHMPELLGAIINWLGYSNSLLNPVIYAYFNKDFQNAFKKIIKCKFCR
Procedure: as §4, §3

[4] = test system: C57BL/6J mice; test: Head twitch response (HTR) in mice; type: in vivo, mouse; conditions: for HTR (total events) Mean: 30 min; for ED50: Mus musculus, sc
Procedure: Each drug was tested using groups of 12 mice per sex (i.e., 24 total mice per drug). Experimental sessions were conducted once every 1–2 weeks for 2 months per drug. Experimental sessions were spaced apart by at least 1 week to minimize the potential for tolerance to drug effects (Canal and Morgan [2012]; Darmani et al. [1990a]; de la Fuente Revenga et al. [2022]). Experiments were conducted during the light phase (1300–1700 local time; lights on = 0700 in a 12/12 light/dark cycle).
as §1, §2, §3

Compound: CCN(CC)C(=O)[C@@H]1C=C2c3cccc4[nH]cc(c34)C[C@H]2N(C)C1 [LSD, lysergic acid diethylamide]
- Locomotor Activity (cm) Mean ([1]; 0.003 mg/kg s.c., female mice): 2499.8 cm
- Locomotor Activity (cm) Mean ([1]; 0.003 mg/kg s.c., male mice): 2549.1 cm
- Locomotor Activity (cm) Mean ([1]; 0.003 mg/kg s.c., pooled sexes): 2526 cm
- Locomotor Activity (cm) Mean ([1]; 0.01 mg/kg s.c., female mice): 2581.2 cm
- Locomotor Activity (cm) Mean ([1]; 0.01 mg/kg s.c., male mice): 2649.3 cm
- Locomotor Activity (cm) Mean ([1]; 0.01 mg/kg s.c., pooled sexes): 2615 cm
- Locomotor Activity (cm) Mean ([1]; 0.03 mg/kg s.c., female mice): 2977.4 cm
- Locomotor Activity (cm) Mean ([1]; 0.03 mg/kg s.c., male mice): 2756.4 cm
- Locomotor Activity (cm) Mean ([1]; 0.03 mg/kg s.c., pooled sexes): 2867 cm
- Locomotor Activity (cm) Mean ([1]; 0.1 mg/kg s.c., female mice): 2290.0 cm
- Locomotor Activity (cm) Mean ([1]; 0.1 mg/kg s.c., male mice): 2650.0 cm
- Locomotor Activity (cm) Mean ([1]; 0.1 mg/kg s.c., pooled sexes): 2456 cm
- Locomotor Activity (cm) Mean ([1]; 0.3 mg/kg s.c., female mice): 2309.5 cm
- Locomotor Activity (cm) Mean ([1]; 0.3 mg/kg s.c., male mice): 2123.8 cm
- Locomotor Activity (cm) Mean ([1]; 0.3 mg/kg s.c., pooled sexes): 2217 cm
- Locomotor activity effect ([1]; 1 mg/kg s.c.): decreased locomotion
- Locomotor Activity (cm) Mean ([1]; 1 mg/kg s.c., female mice): 2029.2 cm
- Locomotor Activity (cm) Mean ([1]; 1 mg/kg s.c., male mice): 1571.6 cm
- Locomotor Activity (cm) Mean ([1]; 1 mg/kg s.c., pooled sexes): 1800 cm
- Ki ([2]; 5-HT2A binding affinity (Ki), males and females, male and female mouse brain membranes, summary statement): 1 to 100 nM
- Ki ([2]; [3H]M100907 Binding ♀ m5-HT2A Ki, female mouse brain membranes): 1.9 nM
- Ki ([2]; [3H]M100907 Binding ♂ m5-HT2A Ki, male mouse brain membranes): 2.3 nM
- Ki ([3]; 5-HT1A binding affinity (Ki), males and females, male and female mouse brain membranes, summary statement): 1 to 100 nM
- Ki ([3]; [3H]8-OH-DPAT Binding ♀ m5-HT1A Ki, female mouse brain membranes): 0.95 nM
- Ki ([3]; [3H]8-OH-DPAT Binding ♂ m5-HT1A Ki, male mouse brain membranes): 1.02 nM
- HTR (total events) Mean ([4]; 0.003 mg/kg s.c., female mice): 6.5 total events
- HTR (total events) Mean ([4]; 0.003 mg/kg s.c., male mice): 6.3 total events
- HTR (total events) Mean ([4]; 0.003 mg/kg s.c., pooled sexes): 6.4 total events
- HTR (total events) Mean ([4]; 0.01 mg/kg s.c., female mice): 10.7 total events
- HTR (total events) Mean ([4]; 0.01 mg/kg s.c., male mice): 13.5 total events
- HTR (total events) Mean ([4]; 0.01 mg/kg s.c., pooled sexes): 12.1 total events
- HTR (total events) Mean ([4]; 0.03 mg/kg s.c., female mice): 24.2 total events
- HTR (total events) Mean ([4]; 0.03 mg/kg s.c., male mice): 29.7 total events
- HTR (total events) Mean ([4]; 0.03 mg/kg s.c., pooled sexes): 27.2 total events
- HTR (total events) Mean ([4]; 0.1 mg/kg s.c., female mice): 43.5 total events
- HTR (total events) Mean ([4]; 0.1 mg/kg s.c., male mice): 43.7 total events
- HTR (total events) Mean ([4]; 0.1 mg/kg s.c., pooled sexes): 43.6 total events
- HTR (total events) Mean ([4]; 0.3 mg/kg s.c., female mice): 55.8 total events
- HTR (total events) Mean ([4]; 0.3 mg/kg s.c., male mice): 45.0 total events
- HTR (total events) Mean ([4]; 0.3 mg/kg s.c., pooled sexes): 50.4 total events
- HTR (total events) Mean ([4]; 1 mg/kg s.c., female mice): 38.0 total events
- HTR (total events) Mean ([4]; 1 mg/kg s.c., male mice): 26.2 total events
- HTR (total events) Mean ([4]; 1 mg/kg s.c., pooled sexes): 32.1 total events
- ED50 ([4]; female mice, ascending limb of dose-response curve, read-out: HTR ♀ ED50 (95% CI)): 0.051 mg/kg
- ED50 ([4]; male mice, ascending limb of dose-response curve, read-out: HTR ♂ ED50 (95% CI)): 0.024 mg/kg
- ED50 ([4]; pooled male and female mice, read-out: HTR ♂+♀ ED50 (95% CI)): 0.035 mg/kg
- Duration of HTR effect in the session ([4]; peak/active doses, 30 min session): trended to baseline levels by the end of the testing session
- Time of peak effects on HTR post drug administration ([4]; s.c., both sexes, 30 min session): 5 to 10 min
- HTR ♀ Emax (95% CI) ([4]; s.c., female mice, top of regression fit): 58 (50–68) HTR events
- HTR ♂ Emax (95% CI) ([4]; s.c., male mice, top of regression fit): 46 (44–50) HTR events
- HTR ♂+♀ Emax (95% CI) ([4]; s.c., pooled male and female mice): 51 (46–60) HTR events
